From patent US20170035742A1, “DURABLE TREATMENT WITH 4-AMINOPYRIDINE IN PATIENTS WITH DEMYELINATION” (Acorda Therapeutics, Inc., priority 2009, published 2017)

Assays:
Plasma protein binding = assay type: in vitro ADME; settings: human
Description: Measurable levels are present in the saliva.

[1] = Single- and repeated-dose toxicity studies; assay type: in vivo; settings: after large single doses or repeated lower doses, all species studied
Description: In single- and repeated-dose toxicity studies, the dosing regimen greatly affected the rate of side effects. […] These clinical signs were not unexpected and represent exaggerated pharmacology of 4-aminopyridine.

[2] = Adverse events in controlled clinical studies; assay type: in vivo, human
Description: In controlled clinical studies involving the use of 4-aminopyridine, the most frequent adverse events by body system occurred in the nervous system, “body as a whole”, and digestive system.
While an increased incidence of such events appears to be moderately dose-related, the susceptibility of individuals is quite variable. As a result of disease pathology, there appears to be potential for more lowering of seizure threshold in people with MS than for people with spinal cord injury; this may result from interaction of the channel-blocking properties of the drug with MS brain pathology in certain individuals.

[3] = test system: patients with multiple sclerosis; experiment: MS-F203EXT open-label extension study; settings: over two years open-label
Description: This extension study (MS-F203EXT) monitored efficacy and safety during open-label treatment of patients from MS-F203. Design/methods: Patients were treated with 10 mg fampridine bid, and were assessed in the clinic at 2, 14, and 26 weeks and every 6 months thereafter. Eligibility criteria included: definite MS; age 18-70; Timed 25-Foot Walk (T25FW) times of 8-45 seconds at screening for MS-F203. Efficacy was analyzed by the proportion of Extension Timed Walk Responders (ETWRs) whose walking was faster during the majority of visits than their fastest off-treatment speed.
MS-F203EXT monitored efficacy and safety during open-label treatment of patients from MS-F203. Patients were treated with 10 mg fampridine bid, and were assessed in the clinic at 2, 14, and 26 weeks and every 6 months thereafter. Eligibility criteria included: definite MS; age 18-70; Timed 25-Foot Walk (T25FW) times of 8-45 seconds at screening for MS-F203. Efficacy was analyzed by the proportion of Extension Timed Walk Responders (ETWRs) whose walking was faster during the majority of visits than their fastest off-treatment speed. […] There are safety assessments, a timed 25 Foot Walk assessment, Clinician and Subject Global Impression at each visit. An EDSS assessment is performed every 2 years.
Timed walk response in the extension study was measured using the Timed 25-Foot Walk (T25W). […]

[4] = Rat i.v. and p.o. pharmacokinetics, 2 mg/kg (M 2001-03); settings: AUC(0-∞) p.o. vs i.v.
[5] = Tissue distribution of 14C-labeled 4-aminopyridine 1 mg/kg p.o. in rats; settings: one hour post-dose
Description: In a single-dose study, rats were administered ^14C-labeled 4-aminopyridine (1 mg/kg) p.o. Three animals per time point were sacrificed 1, 3, 8, and 24 hours post-dose. Blood was collected and tissues were excised for determination of radioactivity.

| Molecule | unbound to plasma proteins (Plasma protein binding) | clinical signs [1] | most common nervous system adverse events [2] | most frequently reported event in the digestive system category [2] | safety profile [3] | bioavailability ([4]; female rats) [%] | bioavailability ([4]; male rats) | dose accounted for in total [5] [%] | radioactivity in blood, percent of dose [5] [%] | radioactivity in kidney, percent of dose [5] [%] | radioactivity in liver, percent of dose [5] [%] |
| --- | --- | --- | --- | --- | --- | --- | --- | --- | --- | --- | --- |
| Nc1ccncc1 [4-aminopyridine] | 97-99% | tremors, convulsions, ataxia, dyspnea, dilated pupils, prostration, abnormal vocalization, increased respiration, excess salivation, gait abnormalities, and hyper- and hypo-excitability | Dizziness, insomnia, paresthesia, pain, headache and asthenia | nausea | No new safety issues emerged | ~55 | approximately 66.5% | – | – | – | – |
| ^14C-4-Aminopyridine | – | – | – | – | – | – | – | 58.3 | 0.7 | 1.6 | 2.6 |
